Test results: patent US8263606B2 (Xenon Pharmaceuticals Inc., priority 2008, dated 2012)

How the values were obtained:
CYP3A4 = CYP3A4 (Homo sapiens, UniProt P08684); assay: Cytochrome P450 (CYP450) Inhibition Assay, CYP3A4 (Vivid fluorescence, BOMCC substrate); details: human, P450 Baculosomes (recombinant CYP3A4), probe BOMCC (Vivid substrate)
sodium channel = assay: Guanidine influx assay (14C-guanidine radiotracer flux, in vitro); assay type: cell-based, human or rat; details: guanidine influx assay using a known cell line that expresses a sodium channel; activity level class
How it was run: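 IC50 derives from a four-parameter logistic fit of 14C-guanidine uptake, test agent serially half-diluted around a 1 μM midpoint. Flux was driven by aconitine in low-sodium HEPES/choline saline at ambient temperature, using endogenous or recombinant human or rat sodium-channel cell lines plated ~100,000/well for 20–24 h.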

Sequence of CYP3A4 (P08684 whole entry): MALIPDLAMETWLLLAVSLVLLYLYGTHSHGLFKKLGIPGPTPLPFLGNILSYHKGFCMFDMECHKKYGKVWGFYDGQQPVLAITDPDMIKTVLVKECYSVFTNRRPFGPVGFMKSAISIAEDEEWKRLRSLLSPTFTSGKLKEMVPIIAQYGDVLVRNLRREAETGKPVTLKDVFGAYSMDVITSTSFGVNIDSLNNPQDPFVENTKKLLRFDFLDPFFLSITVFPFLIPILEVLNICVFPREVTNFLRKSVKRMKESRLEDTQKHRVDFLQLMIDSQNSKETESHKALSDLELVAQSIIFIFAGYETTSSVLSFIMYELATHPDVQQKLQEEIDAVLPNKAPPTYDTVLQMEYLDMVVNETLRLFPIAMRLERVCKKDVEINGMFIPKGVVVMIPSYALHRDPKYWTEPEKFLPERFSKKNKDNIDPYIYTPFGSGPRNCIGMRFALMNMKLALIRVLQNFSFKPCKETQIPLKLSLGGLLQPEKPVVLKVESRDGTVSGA

inhibition at 10 µM (CYP3A4) [%]	melting point [°C]	IC50 (sodium channel) [µM]	Structure (SMILES)
< 50	131 to 134	0.001 to 0.1	O=C1N(Cc2cccc(C(F)(F)F)c2)c2ccccc2C12COc1cc3c(cc12)OCCO3 (stereo not drawn) [Example 7.1, 1′-[3-(trifluoromethyl)benzyl]-2,3-dihydrospiro[furo[2,3-g][1,4]benzodioxine-8,3′-indol]-2′(1′H)-one]
> 50	88 to 92	0.001 to 0.1	COC(=O)c1ccc(CN2C(=O)C3(COc4cc5c(cc43)OCCO5)c3ccccc32)o1 (stereo not drawn) [Example 7.2, methyl 5-[(2′-oxo-2,3-dihydrospiro[furo[2,3-g][1,4]benzodioxine-8,3′-indol]-1′(2′H)-yl)methyl]furan-2-carboxylate]
< 50	192 to 193	0.1 to 1	O=C1N(C[C@H]2CCCO2)c2c(Cl)cccc2C12COc1cc3c(cc12)CCO3 (stereo partly drawn) [Example 8.1, 7′-chloro-1′-[(2R)-tetrahydrofuran-2-ylmethyl]-5,6-dihydrospiro[benzo[1,2-b:5,4-b′]difuran-3,3′-indol]-2′(1′H)-one]
> 50	175 to 176	0.001 to 0.1	Cc1ccc(F)c2c1N(C[C@H]1CCCO1)C(=O)C21COc2cc3c(cc21)CCO3 (stereo partly drawn) [Example 8.3, 4′-fluoro-7′-methyl-1′-[(2R)-tetrahydrofuran-2-ylmethyl]-5,6-dihydrospiro[benzo[1,2-b:5,4-b′]difuran-3,3′-indol]-2′(1′H)-one]
< 50	198 to 199	1 to 10	O=C1N(C[C@@H]2COCCO2)c2ccccc2[C@@]12COc1cc3c(cc12)OCCO3 [Example 8.5, (8R)-1′-[(2R)-1,4-dioxan-2-ylmethyl]-2,3-dihydrospiro[furo[2,3-g][1,4]benzodioxine-8,3′-indol]-2′(1′H)-one]
< 50	162 to 164	0.1 to 1	O=C1N(C[C@H]2CCCO2)c2ccccc2C12COc1cc3c(cc12)OCC3 (stereo partly drawn) [Example 8.9, 1′-[(2R)-tetrahydrofuran-2-ylmethyl]-6,7-dihydrospiro[benzo[1,2-b:4,5-b′]difuran-3,3′-indol]-2′(1′H)-one]
< 50	162 to 164	0.1 to 1	O=C1N(C[C@@H]2COCCO2)c2ccccc2C12COc1cc3c(cc12)OCC3 (stereo partly drawn) [Example 8.10, 1′-[(2R)-1,4-dioxan-2-ylmethyl]-6,7-dihydrospiro[benzo[1,2-b:4,5-b′]difuran-3,3′-indol]-2′(1′H)-one]
< 50	134 to 138	1 to 10	O=C1N(C[C@H]2CCCO2)c2ccccc2C12COc1cc3c(cc12)OCCCO3 (stereo partly drawn) [Example 8.11, 1′-[(2R)-tetrahydrofuran-2-ylmethyl]-3,4-dihydro-2H-spiro[furo[2,3-h][1,5]benzodioxepine-9,3′-indol]-2′(1′H)-one]

The next lines start with the compound.

Structure (SMILES)	inhibition at 10 µM (CYP3A4) [%]	melting point [°C]	IC50 (sodium channel) [µM]
O=C1N(CC2CC2(F)F)c2ccccc2C12COc1cc3c(cc12)OCCO3 (stereo not drawn) [Example 5.21, 1′-[(2,2-difluorocyclopropyl)methyl]-2,3-dihydrospiro[furo[2,3-g][1,4]benzodioxine-8,3′-indol]-2′(1′H)-one]	< 50	162 to 164	0.001 to 0.1
CN1C(=O)C2(COc3cc4c(cc32)OCCO4)c2ccccc21 (stereo not drawn) [Example 5.22, 1′-methyl-2,3-dihydrospiro[furo[2,3-g][1,4]benzodioxine-8,3′-indol]-2′(1′H)-one]	< 50	152 to 154	0.001 to 0.1
O=C1N(Cc2nc(C(F)(F)F)cs2)c2ccccc2C12COc1cc3c(cc12)OCCO3 (stereo not drawn) [Example 5.23, 1′-{[4-(trifluoromethyl)-1,3-thiazol-2-yl]methyl}-2,3-dihydrospiro[furo[2,3-g][1,4]benzodioxine-8,3′-indol]-2′(1′H)-one]	> 50	169 to 170	0.001 to 0.1
O=C1N(Cc2ncccn2)c2ccccc2C12COc1cc3c(cc12)OCCO3 (stereo not drawn) [Example 5.32, 1′-(pyrimidin-2-ylmethyl)-2,3-dihydrospiro[furo[2,3-g][1,4]-benzodioxine-8,3′-indol]-2′(1′H)-one]	< 50	278 to 279	0.001 to 0.1
COc1cc(OC)nc(CN2C(=O)C3(COc4cc5c(cc43)OCCO5)c3ccccc32)n1 (stereo not drawn) [Example 5.33, 1′-[(4,6-dimethoxypyrimidin-2-yl)methyl]-2,3-dihydrospiro[furo[2,3-g][1,4]benzodioxine-8,3′-indol]-2′(1′H)-one]	> 50	169 to 170	0.001 to 0.1
COCCOc1ccc2c(c1)OCC21C(=O)N(Cc2ccccn2)c2ccccc21 (stereo not drawn) [Example 5.34, 6-(2-methoxyethoxy)-1′-(pyridin-2-ylmethyl)spiro[1-benzofuran-3,3′-indol]-2′(1′H)-one]	< 50	94 to 95	0.1 to 1
COCCOc1ccc2c(c1)C1(CO2)C(=O)N(Cc2ccccn2)c2ccccc21 (stereo not drawn) [Example 5.35, 5-(2-methoxyethoxy)-1′-(pyridin-2-ylmethyl)spiro[1-benzofuran-3,3′-indol]-2′(1′H)-one]	< 50	140 to 142	0.1 to 1
O=C1N(Cc2ccccn2)c2ccccc2C12COc1c2ccc2c1OCCO2 (stereo not drawn) [Example 5.36, 1-(pyridin-2-ylmethyl)-2,3-dihydrospiro[furo[2,3-f][1,4]benzodioxine-7,3′-indol]-2′(1′H)-one]	< 50	205 to 206	0.1 to 1
O=C1N(Cc2ncccc2C(F)(F)F)c2ccccc2C12COc1c2ccc2c1OCCO2 (stereo not drawn) [Example 5.37, 1′-{[3-(trifluoromethyl)pyridin-2-yl]methyl}-2,3-dihyrospiro[furo[2,3-f][1,4]benzodioxine-7,3′-indol]-2′(1′H)-one]	< 50	206 to 207	0.1 to 1
O=C1N(Cc2cc(=O)[nH]c(=O)[nH]2)c2ccccc2C12COc1cc3c(cc12)OCO3 (stereo not drawn) [Example 5.38, 6-[(2′-oxospiro[furo[2,3-f][1,3]benzodioxole-7,3′-indol]-1′(2′H)-yl)methyl]pyrimidine-2,4(1H,3H)-dione]	< 50	> 300	1 to 10
O=C1N(Cc2nsc(Cl)n2)c2ccccc2C12COc1cc3c(cc12)OCO3 (stereo not drawn) [Example 6, 1′-[(5-chloro-1,2,4-thiadiazol-3-yl)methyl]spiro[furo[2,3-f][1,3]benzodioxole-7,3′-indol]-2′(1′H)-one]	> 50	114 to 116	0.001 to 0.1
O=C1N(Cc2nsc(Cl)n2)c2cccc(Cl)c2C12COc1cc3c(cc12)OCO3 (stereo not drawn) [Example 6.1, 4′-chloro-1′-[(5-chloro-1,2,4-thiadiazol-3-yl)methyl]spiro[furo[2,3-f][1,3]benzodioxole-7,3′-indol]-2′(1′H)-one]	> 50	174 to 176	0.001 to 0.1
O=C1N(Cc2sccc2Cl)c2ccccc2C12COc1cc3c(cc12)OCO3 (stereo not drawn) [Example 6.3, 1′-[(3-chlorothiophen-2-yl)methyl]spiro[furo[2,3-f][1,3]benzodioxole-7,3′-indol]-2′(1′H)-one]	> 50	161 to 163	0.001 to 0.1
Cc1onc(-c2c(Cl)cccc2Cl)c1CN1C(=O)C2(COc3cc4c(cc32)OCO4)c2ccccc21 (stereo not drawn) [Example 6.4, 1′-{[3-(2,6-dichlorophenyl)-5-methylisoxazol-4-yl]methyl}spiro[furo[2,3-f][1,3]benzodioxole-7,3′-indol]-2′(1′H)-one]	> 50	190 to 192	1 to 10
O=C1N(Cc2csc(-c3ccc(C(F)(F)F)cc3)n2)c2ccccc2C12COc1cc3c(cc12)OCO3 (stereo not drawn) [Example 6.5, 1′-({2-[4-(trifluoromethyl)phenyl]-1,3-thiazol-4-yl}methyl)spiro[furo[2,3-f][1,3]benzodioxole-7,3′-indol]-2′(1′H)-one]	> 50	151 to 153	0.1 to 1
O=C1N(Cc2nnc(-c3ccccc3)o2)c2ccccc2C12COc1cc3c(cc12)OCO3 (stereo not drawn) [Example 6.6, 1′-[(5-phenyl-1,3,4-oxadiazol-2-yl)methyl]spiro[furo[2,3-f][1,3]benzodioxole-7,3′-indol]-2′(1′H)-one]	> 50	158 to 160	0.1 to 1
O=C1N(Cc2nnc(-c3ccc(Cl)cc3)o2)c2ccccc2C12COc1cc3c(cc12)OCO3 (stereo not drawn) [Example 6.7, 1′-{[5-(4-chlorophenyl)-1,3,4-oxadiazol-2-yl]methyl}spiro[furo[2,3-f][1,3]benzodioxole-7,3′-indol]-2′(1′H)-one]	> 50	161 to 162	0.1 to 1
O=C1N(Cc2nc3ncccc3o2)c2ccccc2C12COc1cc3c(cc12)OCO3 (stereo not drawn) [Example 6.8, 1′-([1,3]oxazolo[4,5-b]pyridin-2-ylmethyl)spiro[furo[2,3-f][1,3]benzodioxole-7,3′-indol]-2′(1′H)-one]	< 50	202 to 204	0.001 to 0.1
O=C1N(C[C@H]2COCCO2)c2ccccc2C12COc1cc3c(cc12)OCO3 (stereo partly drawn) [Example 8, 1′-[(2S)-1,4-dioxan-2-ylmethyl]spiro[furo[2,3-f][1,3]benzodioxole-7,3′-indol]-2′(1′H)-one]	> 50	147 to 149	0.001 to 0.1
